The record followed here is US20120122908A1, “Novel C-4 Substituted Retinoids” (University of Maryland, priority 2000, published 2012).

In one assay the target is T1, CYP19 (aromatase) (Homo sapiens, UniProt P11511).
T1 sequence (P11511 1-503): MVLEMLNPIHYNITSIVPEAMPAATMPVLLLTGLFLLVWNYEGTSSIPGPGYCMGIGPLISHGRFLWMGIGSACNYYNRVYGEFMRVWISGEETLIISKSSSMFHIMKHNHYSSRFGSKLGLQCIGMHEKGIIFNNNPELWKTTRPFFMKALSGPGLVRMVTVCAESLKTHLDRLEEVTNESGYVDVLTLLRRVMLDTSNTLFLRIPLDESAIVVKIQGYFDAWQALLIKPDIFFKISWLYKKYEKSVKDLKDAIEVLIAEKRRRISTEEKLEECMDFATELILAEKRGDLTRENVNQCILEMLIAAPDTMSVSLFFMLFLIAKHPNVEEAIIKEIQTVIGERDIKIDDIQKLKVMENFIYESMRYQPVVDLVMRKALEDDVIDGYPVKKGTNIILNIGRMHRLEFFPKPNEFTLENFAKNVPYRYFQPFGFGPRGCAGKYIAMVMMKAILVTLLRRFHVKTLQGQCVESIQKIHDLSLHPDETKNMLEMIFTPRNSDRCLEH
The experiment in a line: Selectivity: effect on CYP19 (aromatase). In kind it is biochemical. The following applies: concentration as high as 5 μM. The procedure: The selectivity of the compounds of the present invention towards ATRA-4-hydroxylase was tested by measuring the effect on the key enzymes in the biosynthesis of estradiol and dehydroepiandrosterone, CYP19 (aromatase) and CYP17 (17-lyase), respectively.

In a further assay the target is T2, RARα (Homo sapiens, UniProt P10276).
T2 construct: Recombinant full-length RAR proteins were expressed as S-Tag fusion proteins in BL21 E. coli cells; S-Tag; made in house; host or cells: E. coli BL21
T2 sequence (P10276 1-462): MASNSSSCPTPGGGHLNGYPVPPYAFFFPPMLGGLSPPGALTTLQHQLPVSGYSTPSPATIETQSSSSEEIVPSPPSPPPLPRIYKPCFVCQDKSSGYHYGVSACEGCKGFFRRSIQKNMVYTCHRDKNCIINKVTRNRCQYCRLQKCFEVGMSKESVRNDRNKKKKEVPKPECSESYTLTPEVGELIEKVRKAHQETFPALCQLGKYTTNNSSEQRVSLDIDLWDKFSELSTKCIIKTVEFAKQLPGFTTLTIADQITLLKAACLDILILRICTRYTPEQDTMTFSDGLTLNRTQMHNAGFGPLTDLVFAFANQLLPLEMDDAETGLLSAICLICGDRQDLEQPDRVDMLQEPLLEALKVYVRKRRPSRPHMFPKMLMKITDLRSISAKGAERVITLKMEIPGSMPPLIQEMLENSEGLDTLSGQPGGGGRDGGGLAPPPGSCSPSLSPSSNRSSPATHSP
The experiment in a line: Competitive [3H]ATRA binding to recombinant RARα. The following applies: for binding to RARα: concentrations up to 500 nM. The source says:
Because the novel compounds are retinoid-related analogs, they bind to the retinoid receptors in vivo and thus have increased therapeutic potentials. Similar to ATRA, these novel compounds act as a ligand for the retinoic acid receptors (RARs, α, β, and γ) but not the retinoid X receptors (RXRs, α, β, and γ). […] (Nervi C, Grippo J F, Sherman M I, George M D, Jetten A M, Identification and characterization of nuclear retinoic acid-binding activity inhuman myeloblastic leukemia HL-60 cells, Proc Natl Acad Sci USA 86: 5854-5858, 1989) The dissociation constants for the inhibitors is determined by the well described charcoal absorption method (Yang N, Schule R, Mangelsdorf D J, Evans R M, Characterization of DNA binding and retinoic acid binding properties of retinoic acid receptor, Proc Natl Acad Sci USA 88: 3559-3663, 1991). Briefly, serial dilutions of the novel compounds (10^−11 to 10^−5 M) in dimethyl sulfoxide, 100 μL each is used. 12 mg of crude cytosolic extracts is prepared from pET15b (Novagen, Madison, Wis.)/hRAR-α, -β, and -γ prepared protein is used for each data point. All reactions are conducted in binding buffer (60 mM Na imidazole, 500 mM NaCl, 20 mM Tris, pH 7.9) for 14-16 hours at 4° C. in a final volume of 1 mL. Unbound [^3H]ATRA is removed by addition of 0.5 mL of equivalent-sized dextran-treated charcoal (final concentration 3% [wt/vol]) for 15 minutes at 4° C. […]
Since the RAMBAs are retinoic acid analogs, it is possible that some of the compounds may bind to retinoid receptors and function as either transcriptional agonists/antagonists or may display anti AP-1 activity (Chambon P, A decade of molecular biology of retinoic acid, FASEB J 10: 5899-5904, 19962. The ability of three RAMBAs, VN/14-1, VN/50A-1 and VN/66-1 to bind to the individual RAR receptors was thus evaluated in vitro. Recombinant full-length RAR proteins were expressed as S-Tag fusion proteins in BL21 E. coli cells used for competitive binding assays. Each competition-binding assay contained 1 nM [^3H] […]

Usually IC50 stands for the concentration that inhibits the measured activity by half. As for `CC1=C(/C=C/C(C)=C/C=C/C(C)=C/C(=O)O)C(C)(C)CCC1n1ccnc1` (racemic) [VN/14-1, (±)-4-(1H-imidazole-1-yl)retinoic acid], on CYP19 (aromatase), the “inhibition of CYP19 (aromatase)” value is on record as “barely inhibited”. The IC50 at RARα (1 nM [3H]ATRA, competitor 1 nM to 500 nM) was around 16 nM.
For the compound `CC(C=CC1=C(C)C(n2ccnc2)CCC1(C)C)=CC=CC(C)=CC(=O)Nc1ccc(O)cc1` (racemic) [VN/66-1, (±)-4-(1H-imidazol-1-yl), N-(4′-hydroxyphenyl)retinamide], at CYP19 (aromatase), the “inhibition of CYP19 (aromatase)” value is “barely inhibited”. The “binding to RARα” value at RARα is on record as “did not bind”.
The like results for `CC(C=CC1=C(C)C(n2ccnc2)CCC1(C)C)=CC=CC(C)=CC(=O)n1ccnc1` (stereo not drawn) [VN/50A-1] were, in that order, “barely inhibited” and “did not bind”.
